In test [1] the target is T1, Human immunodeficiency virus type 1 integrase (Human immunodeficiency virus 1, UniProt Q7ZJM1).
Description: Inhibition of HIV-1 integrase by radiolabeled oligonucleotide-based assay integration
Test [2] concerns the target T1, Human immunodeficiency virus type 1 integrase. This is another data set of the same source.
Description: Compound was evaluated for the inhibitory concentration against HIV-1 integrase by radiolabeled oligonucleotide-based assay 3''-processing
Test [3] concerns CEM-SS. The experiment in a line: Compound was evaluated for the cytoprotection of CEM-SS cells by XTT cytoprotection assay through the NCI AIDS Screen; Not reached due to cytotoxicity. The format is functional, cell-based, Homo sapiens. (Formazan colour is commonly taken as a measure of viable cells.)
Test [4] deals with CEM-SS. Description: Compound was evaluated for the cytoprotection by XTT cytoprotection assay through the NCI AIDS Screen. The class given is functional, cell-based. The following applies: Homo sapiens.
The test system of test [5] is CEM-SS. The experiment in a line: Compound was evaluated for the cytoprotection of CEM-SS cells by XTT cytoprotection assay through the NCI AIDS Screen. The format is functional, cell-based. The note with it: Homo sapiens.
Test [6] relates to CEM-SS. Description: Compound was evaluated for the cytoprotection fo CEM-SS cells by XTT cytoprotection assay through the NCI AIDS Screen. The note with it: Homo sapiens. The class given is functional, cell-based.
Test [7] concerns CEM-SS. Description: Compound was evaluated for the effect of Order of Addition on Cytoprotection at dilution 333, Add at infection. The format is functional, Homo sapiens.
The test system of test [8] is CEM-SS. Description: Compound was evaluated for the effect of Order of Addition on Cytoprotection against HIV-1RF at dilution 100, Add at infection. The class given is functional, Homo sapiens.
The subject of test [9] is CEM-SS. Description: Compound was evaluated for the effect of Order of Addition on Cytoprotection against HIV-1RF at dilution 100, Pretreat and add 1 uM. The format is functional, Homo sapiens.
Test [10] deals with CEM-SS. Description: Compound was evaluated for the effect of Order of Addition on Cytoprotection against HIV-1RF at dilution 100, Pretreat and add 10 uM. The class given is functional, Homo sapiens.
The test system of test [11] is CEM-SS. The experiment in a line: Compound was evaluated for the effect of Order of Addition on Cytoprotection against HIV-1RF at dilution 100, Pretreat with 100 uM. The class given is functional, Homo sapiens.
The subject of test [12] is CEM-SS. The experiment in a line: Compound was evaluated for the effect of Order of Addition on Cytoprotection against HIV-1RF at dilution 1000, Add at infection. The class given is functional, Homo sapiens.
For test [13], the system named is CEM-SS. Description: Compound was evaluated for the effect of Order of Addition on Cytoprotection against HIV-1RF at dilution 1000, Pretreat and add 1 uM. The format is functional, Homo sapiens.
Test [14] relates to CEM-SS. Description: Compound was evaluated for the effect of Order of Addition on Cytoprotection against HIV-1RF at dilution 1000, Pretreat and add 10 uM. The class given is functional, Homo sapiens.
Test [15] deals with CEM-SS. The experiment in a line: Compound was evaluated for the effect of Order of Addition on Cytoprotection against HIV-1RF at dilution 1000, Pretreat with 100 uM. The class given is functional, Homo sapiens.
For test [16], the system named is CEM-SS. Description: Compound was evaluated for the effect of Order of Addition on Cytoprotection against HIV-1RF at dilution 333, Pretreat and add 10 uM. The class given is functional, Homo sapiens.
Test [17] concerns CEM-SS. Description: Compound was evaluated for the effect of Order of Addition on Cytoprotection against HIV-1RF at dilution 333, Pretreat with 100 uM. The class given is functional, Homo sapiens.
The test system of test [18] is CEM-SS. Description: Compound was evaluated for the effect of Order of Addition on Cytoprotection against HIV-1RF at dilution 333,Pretreat and add 1 uM. The format is functional, Homo sapiens.

The values that follow come from ChEMBL document CHEMBL1132706 (J Med Chem, 1999).

T1 sequence (Q7ZJM1 whole entry): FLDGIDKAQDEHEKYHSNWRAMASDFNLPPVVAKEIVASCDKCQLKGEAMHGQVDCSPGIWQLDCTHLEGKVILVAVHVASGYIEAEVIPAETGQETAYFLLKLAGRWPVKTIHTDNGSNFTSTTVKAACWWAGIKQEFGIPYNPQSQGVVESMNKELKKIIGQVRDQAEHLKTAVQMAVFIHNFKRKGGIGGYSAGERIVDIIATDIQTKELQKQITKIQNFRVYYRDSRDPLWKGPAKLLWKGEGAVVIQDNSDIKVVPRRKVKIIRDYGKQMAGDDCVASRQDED

What is called IC50 is the point on the concentration scale where inhibition reaches its midpoint. Lower therefore signals greater potency in that assay. For `COC(=O)[C@@H](CNC(=O)/C=C/c1ccc(OC(C)=O)c(OC(C)=O)c1)NC(=O)/C=C/c1ccc(OC(C)=O)c(OC(C)=O)c1`, the results for the half-maximal inhibitory concentration (IC50) in [1] and in test [2] were 10 µM and 10.9 µM, respectively.

`CC(=O)Oc1ccc(/C=C/C(=O)OCC(OC(=O)/C=C/c2ccc(OC(C)=O)c(OC(C)=O)c2)C(=O)O)cc1OC(C)=O` (stereo not drawn): the IC50 in test [1] is 2.8 µM; in test [2] it was 2.1 µM.

In the case of `COc1ccc(/C=C/C(=O)NC[C@@H](NC(=O)/C=C/c2ccc(OC)c(OC)c2)C(=O)O)cc1OC`, the IC50 in test [1] and in test [2] was more than 1000 µM in each case.

For `COC(=O)C(COC(=O)/C=C/c1ccc(OC(C)=O)c(OC(C)=O)c1)NC(C)=O` (stereo not drawn), the half-inhibitory concentration (IC50) in [1] and in test [2] was more than 333 µM in each case.

Regarding `O=C(/C=C/c1ccc(O)c(O)c1)OCCOC(=O)/C=C/c1ccc(O)c(O)c1`, the EC50 entry in the test with CEM-SS [3] was “Not reached”. The IC50 is 10 µM in the test on CEM-SS [4], 0.4 µM in [1] and 0.4 µM in test [2].

In the case of `CC(=O)Oc1ccc(/C=C/C(=O)NCC(NC(=O)/C=C/c2ccc(OC(C)=O)c(OC(C)=O)c2)C(=O)O)cc1OC(C)=O` (stereo not drawn), the IC50 in [1] and in [2] was 4.1 µM each time.

In the case of `COC(=O)C(COC(=O)/C=C/c1ccc(OC(C)=O)c(OC(C)=O)c1)NC(=O)/C=C/c1ccc(OC(C)=O)c(OC(C)=O)c1` (stereo not drawn), the IC50 in test [1] was 3.2 µM; in test [2], 2.5 µM.

As to `CC(=O)NC(COC(=O)/C=C/c1ccc(O)c(O)c1)C(=O)O` (stereo not drawn), the IC50 in test [1] amounted to 111 µM; in [2], 333 µM.

On to `CC(=O)Oc1ccc(/C=C/C(=O)OCCOC(=O)/C=C/c2ccc(OC(C)=O)c(OC(C)=O)c2)cc1OC(C)=O`, for which the values for the IC50 (in the test with CEM-SS [5]; in [1]; in [2]) were 6.7 µM, more than 100 µM and more than 100 µM, respectively.

Consider `COC(=O)[C@@H](CNC(=O)/C=C/c1ccc(OC)c(OC)c1)NC(=O)/C=C/c1ccc(OC)c(OC)c1`, for which the IC50 in [1] and in test [2] was more than 1000 µM each time.

Turning to `O=C(/C=C/c1ccc(O)c(O)c1)OCC(OC(=O)/C=C/c1ccc(O)c(O)c1)C(=O)O` (stereo not drawn), the values for the IC50 in test [1] and in test [2] were 1.7 µM and 4.2 µM, respectively.

Regarding `COC(=O)[C@H](COC(=O)/C=C/c1ccc(OC(C)=O)c(OC(C)=O)c1)NC(=O)/C=C/c1ccc(OC(C)=O)c(OC(C)=O)c1`, the 50% inhibitory concentration (IC50) in [1] was determined as 3.8 µM; in [2] it was 2.8 µM.

As for `O=C(/C=C/c1ccc(O)c(O)c1)OCCCOC(=O)/C=C/c1ccc(O)c(O)c1`, the EC50 result in the test with CEM-SS [3] is reported as “Not reached”. Also, the IC50 is 13.9 µM with CEM-SS [6], 7.5 µM in test [1] and 27.5 µM in [2].

For the compound `O=C(/C=C/c1ccc(O)c(O)c1)NCCOC(=O)/C=C/c1ccc(O)c(O)c1`, the results for the IC50 (in the test with CEM-SS [5]; in [1]; in [2]) were 9.22 µM, 6.5 µM and more than 27.5 µM, respectively.

`CC(=O)Oc1ccc(/C=C/C(=O)OCCCOC(=O)/C=C/c2ccc(OC(C)=O)c(OC(C)=O)c2)cc1OC(C)=O`: the IC50 in test [1] and in [2] was more than 333 µM in each case.

`CC(=O)Oc1ccc(/C=C/C(=O)O[C@@H](C)[C@H](C)OC(=O)/C=C/c2ccc(OC(C)=O)c(OC(C)=O)c2)cc1OC(C)=O`: the IC50 with CEM-SS [5] was 5.71 µM; in [1], more than 333 µM; in [2], more than 333 µM.

As to `CC(=O)Oc1ccc(/C=C/C(=O)O[C@H]2CCCC[C@@H]2OC(=O)/C=C/c2ccc(OC(C)=O)c(OC(C)=O)c2)cc1OC(C)=O`, the results for the IC50 (in the test with CEM-SS [5]; in test [1]; in test [2]) were 5.76 µM, more than 333 µM and more than 333 µM, respectively.

`O=C(/C=C/c1ccc(O)c(O)c1)O[C@H]1CCCC[C@@H]1OC(=O)/C=C/c1ccc(O)c(O)c1`: the EC50 result in the test with CEM-SS [3] was “Not reached”. Besides, the IC50 with CEM-SS [5] was 5.67 µM; in test [1], 7.6 µM; in test [2], more than 24.8 µM.

In the case of `C[C@H](OC(=O)/C=C/c1ccc(O)c(O)c1)[C@H](C)OC(=O)/C=C/c1ccc(O)c(O)c1`, the EC50 result in the test with CEM-SS [3] is “Not reached”. The IC50 with CEM-SS [5] was 3.64 µM; in [1] it was 7.8 µM; in [2], more than 38.4 µM.

With `COC(=O)C(COC(=O)/C=C/c1ccc(OC(C)=O)c(OC(C)=O)c1)OC(=O)/C=C/c1ccc(OC(C)=O)c(OC(C)=O)c1` (stereo not drawn), the IC50 in test [1] and in test [2] was 10.1 µM each time.

For `COC(=O)[C@@H](COC(=O)/C=C/c1ccc(OC(C)=O)c(OC(C)=O)c1)NC(=O)/C=C/c1ccc(OC(C)=O)c(OC(C)=O)c1`, the IC50 worked out at 3.2 µM in [1] and 2.8 µM in test [2].

For `O=C(/C=C/c1ccc(O)c(O)c1)NC(COC(=O)/C=C/c1ccc(O)c(O)c1)C(=O)O` (stereo not drawn), the IC50 in test [1] came out at 1.7 µM; in test [2] it was 3.3 µM.

In the case of `O=C(/C=C/c1ccc(O)c(O)c1)O[C@H](C(=O)O)[C@H](OC(=O)/C=C/c1ccc(O)c(O)c1)C(=O)O` [CHICORIC ACID], the Control in the test with CEM-SS [7] came out at 73%; with CEM-SS [8] it was 141%; with CEM-SS [9], 56%; with CEM-SS [10], 114%; in the test with CEM-SS [11], 108%; in the test with CEM-SS [12], 60%. The Control in the test with CEM-SS [13] came to 50%; in the test on CEM-SS [14], 135%; with CEM-SS [15], 168%; in the test with CEM-SS [16], 82%; in the test with CEM-SS [17], 59%; with CEM-SS [18], 92%.
